The text below walks through data of patent US20260165936A1, “BIO-BASED SURFACTANT COMPOSITION FOR REDUCTION OF MULTISPECIES BIOFILM FORMATION IN ORAL CAVITY” (SKYLAB AG, priority 2023, published 2026).

Test [1] concerns dental plaque (biofilm) grown from fresh human saliva. The test is described as follows: Inhibition of biofilm formation on rough glass rods (biofilm dry weight). It is filed as cell-based. To be noted: for Average biofilm weight: biofilm grown 3 days on rough glass rods in human saliva, dry weight; for Biofilm inhibitory effect of the individual component alone compared to the control (in words): individual component without its partner, FIG. 2. The protocol:
The aqueous solutions of sodium lauroyl sarcosinate, biosurfactant rhamnolipid and the mixture thereof at various concentrations were tested for inhibition of biofilm formation on the surface of rough glass rods. The test sample of the raw material contained sodium lauroyl sarcosinate at the level of 35%. The test sample of the raw material contained rhamnolipid at the level of 40%. Sterile water was used as a negative control, and the mouthwash Corsodyl, containing 0.2% chlorhexidine was used as a positive control. Dry biofilm mass was weighted to determine the amount of formed dental plaque. The dental plaque was grown for 3 days by immersion of rough glass rods into the fresh human saliva containing 0.1% saccharose. […] On Day 1 one treatment of the glass rods with the test component solutions, and on Days 2 and 3 two treatments of the glass rods with the test component solutions were made. At the end of Day 3 the biofilm was collected from the glass rods, and the plaque amount by dry weight (g) was determined. Lesser weight indicated higher efficacy against the dental plaque. Sterilized rods were fixed in the holders in the microbiological cabinet. Since that moment the rods and the holders were used as the integral units. On Day 1 the sterile glass rods were pre-treated for 2 minutes with the test component solutions taken in the amount of 5 mL. Then the glass rods were removed, washed in 5 mL of the sterile distilled water and immersed into 5 mL of saliva containing 0.1% saccharose. The tubes were placed into the rack and then into the incubator (t=37° C.) and on shaker (250 rpm) for about 18 hours. On Days 2 and 3 in the morning the rods were treated with the test component solutions, then placed into nutritive broth and returned into the incubator and on shaker. After 6 h incubation in the broth the rods were treated with the test component solution once again and transferred into the saliva with 0.1% glucose, and then returned into the incubator for 18 hours. On Day 4 the tubes with the rods were removed from the incubator and used for determination of the biofilm dry weight. For this purpose, the rods were dried and then weighted on analytical balance with the accuracy of 4 decimal places. The biofilm was removed after the rehydration, and the rods were weighted once again. The biofilm dry weight was determined from the equation: [formula]

The next test relates to dental plaque. To be noted: second-generation anti-plaque agent; cited from earlier work.

For sodium lauroyl sarcosinate, in test [1] (0.2 and 2% aqueous solutions, 10-fold increase in concentration), the “Dose dependence of dental plaque weight (in words)” value is recorded as “absence of obvious dose-dependent effect”. Further, the “Average biofilm weight” value in test [1] (aqueous solution 0.2%) is 0.0022 g; in test [1] (aqueous solution 2%), 0.0020 g. The “Biofilm inhibitory effect of the individual component alone compared to the control (in words)” value in test [1] is “do not provide for any biofilm inhibitory effect compared to the control”.

Take `[H]/N=C(\N/C(=N/[H])NCCCCCCNC(=N)NC(=N)Nc1ccc(Cl)cc1)Nc1ccc(Cl)cc1` [chlorohexidine]: in the test on dental plaque, the “Removal of dental plaque” value is listed as 70-90%.

With rhamnolipid [Biosurfactant rhamnolipid], the “Average biofilm weight” value in test [1] (aqueous solution 0.01%) was determined as 0.0026 g. Also, the “Biofilm inhibitory effect of the individual component alone compared to the control (in words)” value in test [1] was “do not provide for any biofilm inhibitory effect compared to the control”.
